In patent publication US20250034201A1, “PRODRUGS OF GANAXOLONE” (priority 2022, published 2025):

Experiments:
[1] = in vitro; assay type: in vitro ADME, human
Method: (§1) For several compounds only human liver microsomal stability was tested. […] The microsomal assays were carried out with and without the addition of NADPH at a final concentration of 1 mM. For negative control samples, NADPH reagent was not added. […] Note that compounds undergo only Phase I metabolism in liver microsomes.

[2] = in vitro
Method: The plasma stability of exemplary compounds was tested using rat, mice, dog, and human plasma, according to the following protocol. For each test compound, samples at a final concentration of 2 μg/mL were prepared in blank plasma of selected species. All samples were incubated at 37° C. on a 150-RPM orbital shaker, and an aliquot was removed at pre-determined time points (0, 15, 30, 60, and 120 minutes). Samples were precipitated with three volumes of acetonitrile containing propranolol as internal standard, and centrifuged for 10 min at 2000 g before LC/MS/MS analysis of the supernatant solutions.

[3] = Rat liver microsomal stability; assay type: in vitro ADME
Method: as §1
CLint=the intrinsic hepatic clearance (uL/min/mg), where CLint is equal to 0.693/(t1/2×Cmp)

[4] = human liver microsomes 0.5 mg/mL, with NADPH, compound 0.5 μM, 37° C., read-out: Human Liver Microsomal Stability t1/2
[5] = human liver microsomes 0.5 mg/mL, with NADPH, compound 0.5 μM, read-out: Human Liver Microsomal Stability CLint (uL/min/mg liver) (converted)
[6] = human liver microsomes, no NADPH, compound 0.5 μM

Structure (SMILES)	Comments: production of GNX (ganaxolone) in human liver microsomes ([1]; human liver microsomes)	half-life [1, 4] [min]	microsomal CLint [1, 5] [µL/min/mg]	Human Liver Microsomal Stability no NADPH, % remain 1 h [1, 6] [%]	further results
CC(=O)[C@H]1CC[C@H]2[C@@H]3CC[C@H]4C[C@](C)(OC(=O)COC(=O)CN5CCN(C)CC5)CC[C@]4(C)[C@H]3CC[C@]12C [Compound 208]	In human GNX not produced	37	37.4	72	Human plasma t90 ([2]; human plasma, 2 μg/mL, 37° C.): 26.6 min; Observations: stability / GNX production in human plasma ([2]; human, plasma): No GNX produced; half-life ([2]; human, plasma): 177 min
CC(=O)[C@H]1CC[C@H]2[C@@H]3CC[C@H]4C[C@](C)(OC(=O)CCC(=O)OCCN(C)C)CC[C@]4(C)[C@H]3CC[C@]12C [Compound 409]	In human small amount of GNX produced	–	–	–	half-life ([1]; human, microsomes): 12.8 min; microsomal CLint ([1]; human, microsomes): 108 µL/min/mg; Human Liver Microsomal Stability no NADPH, % remain 1 h ([1]; human, microsomes): 7%
COCCN(CCO)CC(=O)OC(C)(C)C(=O)OCC(=O)O[C@]1(C)CC[C@@]2(C)[C@@H](CC[C@@H]3[C@@H]2CC[C@]2(C)[C@@H](C(C)=O)CC[C@@H]32)C1 [Compound 235]	–	5.2	269	36	–
CC(=O)[C@H]1CC[C@H]2[C@@H]3CC[C@H]4C[C@](C)(OC(=O)C5CC5C(=O)O)CC[C@]4(C)[C@H]3CC[C@]12C (stereo partly drawn) [Compound 408]	In human no GNX produced	143	9.72	76	–
CC(=O)[C@H]1CC[C@H]2[C@@H]3CC[C@H]4C[C@](C)(OC(=O)CSC(C)(C)C(=O)NCCN(C)C)CC[C@]4(C)[C@H]3CC[C@]12C [Compound 307]	In human no GNX produced	391	3.55	99	–
COCCOCC(=O)OCC(=O)O[C@]1(C)CC[C@@]2(C)[C@@H](CC[C@@H]3[C@@H]2CC[C@]2(C)[C@@H](C(C)=O)CC[C@@H]32)C1 [Compound 204]	–	4.12	337	10.5	–
CC(=O)[C@H]1CC[C@H]2[C@@H]3CC[C@H]4C[C@](C)(OC(=O)CNCCO)CC[C@]4(C)[C@H]3CC[C@]12C [Compound 107]	GNX not produced in human or rat	–	21.4	99	half-life ([1]; human, microsomes): 64.7 min; Comments: production of GNX (ganaxolone) in rat liver microsomes ([3]; rat liver microsomes): GNX not produced in human or rat; half-life ([3]; rat liver microsomes 0.5 mg/mL, with NADPH, compound 0.5 μM, 37° C., read-out: Rat Liver Microsomal Stability t1/2): 21.9 min; microsomal CLint ([3]; rat liver microsomes 0.5 mg/mL, with NADPH, compound 0.5 μM, read-out: Rat Liver Microsomal Stability CLint (uL/min/mg liver)): 63 µL/min/mg; Rat Liver Microsomal Stability no NADPH, % remain 1 h ([3]; rat liver microsomes, no NADPH, 1 h, compound 0.5 μM): 98%
CC(=O)[C@H]1CC[C@H]2[C@@H]3CC[C@H]4C[C@](C)(OC(=O)COC(=O)[C@@H](C)N5CCOCC5)CC[C@]4(C)[C@H]3CC[C@]12C [Compound 212]	In human small amount of GNX produced	–	–	–	half-life ([1]; human, microsomes): 14.3 min; microsomal CLint ([1]; human, microsomes): 96.9 µL/min/mg; Human Liver Microsomal Stability no NADPH, % remain 1 h ([1]; human, microsomes): 99%
CCOCCC(=O)OCC(=O)O[C@]1(C)CC[C@@]2(C)[C@@H](CC[C@@H]3[C@@H]2CC[C@]2(C)[C@@H](C(C)=O)CC[C@@H]32)C1 [Compound 203]	–	2.24	618	0.79	–
CC(=O)[C@H]1CC[C@H]2[C@@H]3CC[C@H]4C[C@](C)(OC(=O)CSC(C)(C)C(=O)O)CC[C@]4(C)[C@H]3CC[C@]12C [Compound 305]	In human small amount of GNX produced	171	8.12	98.8	–
CC(=O)[C@H]1CC[C@H]2[C@@H]3CC[C@H]4C[C@](C)(OC(=O)CC[C@H](N)C(=O)O)CC[C@]4(C)[C@H]3CC[C@]12C [Compound 416]	In human no GNX produced	273	5.08	99	–
CC(=O)[C@H]1CC[C@H]2[C@@H]3CC[C@H]4C[C@](C)(OC(=O)COC(=O)[C@H](CC(C)C)NC(=O)[C@@H](N)CC(C)C)CC[C@]4(C)[C@H]3CC[C@]12C [Compound 215]	–	257	5.39	88	–
